Assay results as given in patent US7300793B2, “Method for preventing the adhesion of particles” (Evotec Technologies GmbH, priority 2001, dated 2007).

Columns and labels:
[1] = test system: U937-cells; assay: Cell adherence to polystyrene culture dishes in the presence of various substances, with trypan blue vitality check (U937); settings: for U937 Adherence: 30 minutes at 37° C., polystyrene 24-well plate
Procedure: (§1) 50 μl of the cell suspension described above were added.
(§2) The samples were incubated for 30 minutes at 37° C. The supernatant with non-adhered cells was removed and replaced by buffer. The adherence was qualitatively evaluated (refer to table 3). The cells in both supernatant and the wells were stained with trypanblue solution (0.2%, SIGMA Aldrich GmbH, Steinheim) in order to examine the vitality of the cells.

[2] = test system: Jurkat-cells; assay: Cell adherence to polystyrene culture dishes in the presence of various substances, with trypan blue vitality check (Jurkat)
Procedure: as §1, §2

Substance | U937 Adherence ([1]; 0.1% in PBS) | U937 Adherence ([1]; 0.5% in PBS) | Jurkat Adherence ([2]; 0.1% in PBS, 30 minutes at 37° C., polystyrene 24-well plate) | U937 Vitality [1] | Jurkat Vitality [2]
Bovine serum albumin [BSA] | 999 | 99 | 99 | – | –
polyethylene glycol 5,000 [PEG 5,000] | – | – | – | 100% | 100%
polyvinyl alcohol [PVA 30,000–70,000] | – | – | – | 98% | 97%
polyvinyl pyrrolidone 15 [PVP 15] | – | – | – | 100% | 100%
polyvinyl pyrrolidone 25 [PVP 25] | – | – | – | 100% | 100%
